System: subjects with TRD
Experiment: Example 1 Part B: preliminary efficacy on depression rating scales in subjects with TRD
Assay type: in vivo, human
Details: for Effect size, HAM-D6 for ≤55 years old / Effect size, HAM-D6 for ≥36 MADRS at baseline / Effect size, CGI-S for ≤55 years old / Effect size, MADRS Total for ≤55 years old / Effect size, CGI-S for ≥36 MADRS at baseline / Effect size, MADRS Total for ≥36 MADRS at baseline / Effect size, IDS-SR Psychomotor Domain / Effect size, MADRS-06 (core) / Effect size, MADRS-08 (core-plus): post-hoc; for Effect size, HAM-D6 for ≤55 years old / Effect size, CGI-S for ≤55 years old / Effect size, MADRS Total for ≤55 years old: N = 14; for Effect size, HAM-D6 for ≥36 MADRS at baseline / Effect size, CGI-S for ≥36 MADRS at baseline / Effect size, MADRS Total for ≥36 MADRS at baseline: N = 16
Description: Primary Efficacy Endpoint: The primary efficacy endpoint was the difference between the compound A group and the placebo group in change from baseline in the Montgomery Asberg Depression Rating Scale (MADRS) total score at Day 2 (24 hours post dose).
Secondary Efficacy Endpoints: Secondary preliminary efficacy endpoints were the difference between the compound A group and the placebo group in: • change from baseline in the MADRS total score at each time point • change from baseline in the Hamilton Depression Rating Scale-6 Item (HAM-D6) total score at each time point • change from baseline in the IDS-SR30 total score and domain scores at each time point • change from baseline in the Clinical Global Impression-Severity (CGI-S) score at each time point
Preliminary Efficacy Evaluations: Other psychiatric evaluations were performed to assess preliminary efficacy in Part B only. These evaluations included the Montgomery-Asberg Depression Rating Scale (MADRS), the Hamilton Depression Rating Scale-6 Item (HAM-D6), the Clinical Global Impression-Severity (CGI-S), and the Inventory of Depressive Symptomatology (30-item, self-rated version) (IDS-SRN). Montgomery-Asberg Depression Rating Scale (MADRS).
The MADRS is a clinician-administered scale used to assess the range of symptoms that are most frequently observed in patients with major depression. The scale includes 10 items, each scored on a scale of 0 to 6. The MADRS was administered centrally by a third-party independent rater blinded to protocol, visit, and treatment.
Hamilton Depression Rating Scale-6 Item (HAM-D6): The HAM-D6 is a clinician-administered scale used to assess key domains of depressive symptomatology. The HAM-D6 was derived from the original 17-item version of the scale (HAM-D17). Five of the six items are scored on a scale of 0 to 4, and one item is scored on a scale of 0 to 2.
Clinical Global Impression-Severity (CGI-S): The CGI-S is a 7-point clinician-administered scale used to assess the severity of the patient's illness at the time of assessment relative to the clinician's past experience with patients who have the same diagnosis.
Inventory of Depressive Symptomatology (30-Item, Self-Rated Version) (IDS-SR30): The IDS-SR30 is a self-rated scale used to assess the severity of depressive symptomatology. The scale includes 30 items, each scored on a scale of 0 to 3.
The MADRS total score was centrally administered. The HAM-D6 was site-administered. The CGI-S was site physician administered. The IDS-SR was patient self-administered. MADRS-6 and MADRS-8 scores were then extrapolated post hoc from the MADRS total scores.
MADRS-10 items include apparent sadness, reported sadness, inner tension, reduced sleep, reduced appetite, concentration difficulties, lassitude, inability to feel, pessimistic thoughts, and suicidal thoughts. MADRS-6 items include apparent sadness, reported sadness, inner tension, lassitude, inability to feel, and pessimistic thoughts. MADRS-8 items include apparent sadness, reported sadness, inner tension, concentration difficulties, lassitude, inability to feel, pessimistic thoughts, and suicidal thoughts. HAM-D6 items include depressed mood, low self-esteem/guilt, work and interests, psychomotor retardation, psychic anxiety, and somatic symptoms.
When determining clinically significant antidepressant effect, it is recommended to use standardized effect size statistics. The correct use of depression rating scales in clinical trials of antidepressants is to indicate the effect size of the specific items of depression and to accept an effect size of 0.40 or higher as being the clinically significant effect. An effect size of ≥0.2 indicates early improvement. An effect size of ≥0.4 indicates a clinical response.

[1] = single 2400 mg vs placebo, 12 h
[2] = single 2400 mg vs placebo, 24 h
[3] = single 2400 mg vs placebo, 24 h, N = 31
[4] = single 2400 mg vs placebo, 24 h, prespecified, N = 31
[5] = single 2400 mg vs placebo, 36 h
[6] = single 2400 mg vs placebo, 48 h
[7] = single 2400 mg vs placebo, 48 h, N = 31
[8] = single 2400 mg vs placebo, 48 h, prespecified, N = 31
[9] = single 2400 mg vs placebo, 72 h
[10] = single 2400 mg vs placebo, 72 h, N = 31
[11] = single 2400 mg vs placebo, 72 h, prespecified, N = 31
[12] = single 2400 mg, 24 hours post dose

With CC(C)(C[C@H](N)C(=O)O)C(F)F [Compound A, (S)-2-amino-5,5-difluoro-4,4-dimethylpentanoic acid] the “duration of numerical benefits on HAM-D6” value (single 2400 mg) was 24 to 72 h, the “onset of efficacy on HAM-D6” value (single 2400 mg) was “as early as two hours post-dose” and the “MADRS items with greater impact than placebo” value (single 2400 mg vs placebo) was “inner tension, concentration, pessimistic thoughts, and inability to feel”. The “Effect size, HAM-D6 for ≤55 years old” value (single 2400 mg vs placebo, 2 h) was 0.8, the “Effect size, HAM-D6 for ≥36 MADRS at baseline” value (single 2400 mg vs placebo, 2 h) was 1.0 and the “Effect size, HAM-D6” value (single 2400 mg vs placebo, 2 h, prespecified, N = 31) was 0.6. For the same compound, the “Effect size, HAM-D6 for ≤55 years old” value (single 2400 mg vs placebo, 4 h) was 1.0, the “Effect size, HAM-D6 for ≥36 MADRS at baseline” value (single 2400 mg vs placebo, 4 h) was 1.1 and the “Effect size, HAM-D6” value (single 2400 mg vs placebo, 4 h, prespecified, N = 31) was 0.8. The “Effect size, HAM-D6 for ≤55 years old” value (single 2400 mg vs placebo, 8 h) was 1.1, the “Effect size, HAM-D6 for ≥36 MADRS at baseline” value (single 2400 mg vs placebo, 8 h) was 0.8 and the “Effect size, HAM-D6” value (single 2400 mg vs placebo, 8 h, prespecified, N = 31) was 0.7. For the same compound, the “Effect size, HAM-D6 for ≤55 years old” value [1] was 1.3, the “Effect size, HAM-D6 for ≥36 MADRS at baseline” value [1] was 0.9 and the “Effect size, HAM-D6” value (single 2400 mg vs placebo, 12 h, prespecified, N = 31) was 0.8. For the same compound, the “Effect size, CGI-S for ≤55 years old” value [2] was 0.2, the “Effect size, HAM-D6 for ≤55 years old” value [2] was 0.9 and the “Effect size, MADRS Total for ≤55 years old” value [2] was 0.6. For the same compound, the “Effect size, CGI-S for ≥36 MADRS at baseline” value [2] was 0.2, the “Effect size, HAM-D6 for ≥36 MADRS at baseline” value [2] was 0.8 and the “Effect size, MADRS Total for ≥36 MADRS at baseline” value [2] was 0.4. For the same compound, the “Effect size, IDS-SR Psychomotor Domain” value [3] was 0.8, the “Effect size, MADRS-06 (core)” value [3] was 0.3 and the “Effect size, MADRS-08 (core-plus)” value [3] was 0.3. The “Effect size, CGI-S Change from baseline” value [4] was -0.1, the “Effect size, HAM-D6” value [4] was 0.5 and the “Effect size, IDS-SR 30 Total Score” value [4] was 0.3. The “Effect size, MADRS Total Score (prelim. primary @24 h)” value [4] was 0.1, the “Effect size, HAM-D6 for ≤55 years old” value [5] was 1.3 and the “Effect size, HAM-D6 for ≥36 MADRS at baseline” value [5] was 0.9. The “Effect size, HAM-D6” value (single 2400 mg vs placebo, 36 h, prespecified, N = 31) was 0.5, the “Effect size, CGI-S for ≤55 years old” value [6] was 0.4 and the “Effect size, HAM-D6 for ≤55 years old” value [6] was 1.2. For the same compound, the “Effect size, MADRS Total for ≤55 years old” value [6] was 0.6, the “Effect size, CGI-S for ≥36 MADRS at baseline” value [6] was 0.7 and the “Effect size, HAM-D6 for ≥36 MADRS at baseline” value [6] was 0.9. For the same compound, the “Effect size, MADRS Total for ≥36 MADRS at baseline” value [6] was 0.3, the “Effect size, IDS-SR Psychomotor Domain” value [7] was 0.3 and the “Effect size, MADRS-06 (core)” value [7] was 0.3. For the same compound, the “Effect size, MADRS-08 (core-plus)” value [7] was 0.3, the “Effect size, CGI-S Change from baseline” value [8] was 0.1 and the “Effect size, HAM-D6” value [8] was 0.5. The “Effect size, IDS-SR 30 Total Score” value [8] was 0.3, the “Effect size, MADRS Total Score” value [8] was 0.2 and the “Effect size, CGI-S for ≤55 years old” value [9] was 0.2. The “Effect size, HAM-D6 for ≤55 years old” value [9] was 1.1, the “Effect size, MADRS Total for ≤55 years old” value [9] was 0.3 and the “Effect size, CGI-S for ≥36 MADRS at baseline” value [9] was 1.0. The “Effect size, HAM-D6 for ≥36 MADRS at baseline” value [9] was 0.8, the “Effect size, MADRS Total for ≥36 MADRS at baseline” value [9] was 0.3 and the “Effect size, IDS-SR Psychomotor Domain” value [10] was 0.6. For the same compound, the “Effect size, MADRS-06 (core)” value [10] was 0.1, the “Effect size, MADRS-08 (core-plus)” value [10] was 0.1 and the “Effect size, CGI-S Change from baseline” value [11] was 0.2. The “Effect size, HAM-D6” value [11] was 0.4, the “Effect size, IDS-SR 30 Total Score” value [11] was 0.3 and the “Effect size, MADRS Total Score” value [11] was -0.1. The MADRS concentration scores [12] was “marked improvement”, the “MADRS item Apparent Sadness, % CFB” value [12] was −12.3% and the “MADRS item Apparent Sadness, CFB” value [12] was −0.56. The “MADRS item Apparent Sadness, score Day 1” value [12] was 4.00, the “MADRS item Concentration, % CFB” value [12] was −23.1% and the “MADRS item Concentration, CFB” value [12] was −0.94. The “MADRS item Concentration, score Day 1” value [12] was 3.13, the “MADRS item Inability to Feel, % CFB” value [12] was −12.9% and the “MADRS item Inability to Feel, CFB” value [12] was −0.56. The “MADRS item Inability to Feel, score Day 1” value [12] was 3.81, the “MADRS item Inner Tension, % CFB” value [12] was −40.5% and the “MADRS item Inner Tension, CFB” value [12] was −1.06. The “MADRS item Inner Tension, score Day 1” value [12] was 1.56, the “MADRS item Lassitude, % CFB” value [12] was −1.8% and the “MADRS item Lassitude, CFB” value [12] was −0.06. For the same compound, the “MADRS item Lassitude, score Day 1” value [12] was 3.44, the “MADRS item Pessimistic Thoughts, % CFB” value [12] was −23.3% and the “MADRS item Pessimistic Thoughts, CFB” value [12] was −0.63. The “MADRS item Pessimistic Thoughts, score Day 1” value [12] was 2.06, the “MADRS item Reduced Appetite, % CFB” value [12] was −14.3% and the “MADRS item Reduced Appetite, CFB” value [12] was −0.44. The “MADRS item Reduced Appetite, score Day 1” value [12] was 2.63, the “MADRS item Reduced Sleep, % CFB” value [12] was −7.4% and the “MADRS item Reduced Sleep, CFB” value [12] was −0.31. The “MADRS item Reduced Sleep, score Day 1” value [12] was 3.94, the “MADRS item Reported Sadness, % CFB” value [12] was −19.2% and the “MADRS item Reported Sadness, CFB” value [12] was −0.94. The “MADRS item Reported Sadness, score Day 1” value [12] was 3.94, the “MADRS item Suicidal Thoughts, % CFB” value [12] was −9.1% and the “MADRS item Suicidal Thoughts, CFB” value [12] was −0.06. For the same compound, the “MADRS item Suicidal Thoughts, score Day 1” value [12] was 0.63, the “MADRS-10 TOTAL SCORE, CFB” value [12] was −5.5 and the “Change in HAM-D6 Total Score” value (single 2400 mg, at 2 h) was −2.0. For the same compound, the “Change in HAM-D6 Total Score, Difference Compound A vs Placebo” value (“Change … Difference Compound A vs Placebo” below) (single 2400 mg, at 2 h) was −1.3, the “Change in HAM-D6 Total Score” value (single 2400 mg, at 4 h) was −2.6 and the “Change … Difference Compound A vs Placebo” value (single 2400 mg, at 4 h) was −1.8. The “Change in HAM-D6 Total Score” value (single 2400 mg, at 8 h) was −2.9, the “Change … Difference Compound A vs Placebo” value (single 2400 mg, at 8 h) was −1.7 and the “Change in HAM-D6 Total Score” value (single 2400 mg, at 12 h) was −3.9. The “Change … Difference Compound A vs Placebo” value (single 2400 mg, at 12 h) was −2.7, the “Change in HAM-D6 Total Score” value (single 2400 mg, at 24 h) was −3.5 and the “Change … Difference Compound A vs Placebo” value (single 2400 mg, at 24 h) was −1.5. For the same compound, the “Change in HAM-D6 Total Score” value (single 2400 mg, at 36 h) was −4.3, the “Change … Difference Compound A vs Placebo” value (single 2400 mg, at 36 h) was −1.8 and the “Change in HAM-D6 Total Score” value (single 2400 mg, at 48 h) was −3.7. The “Change … Difference Compound A vs Placebo” value (single 2400 mg, at 48 h) was −1.3, the “Change in HAM-D6 Total Score” value (single 2400 mg, at 72 h) was −4.1 and the “Change … Difference Compound A vs Placebo” value (single 2400 mg, at 72 h) was −1.3. For the same compound, the HAM-D6 scores (single dose 2400 mg, FIG. 2) was “rapid and sustained efficacy”.
